Ends that are not written are not given here.
Assays:
detached potato leaves = detached potato leaves treated with peptide plus water, no inoculum; 9 = clean leaves
Phytophthora infestans [1] = type: in vivo
[2] = system: Phytophthora infestans zoospores
Phytophthora infestans [3] = type: in vivo; remark: listed apart in the source

| Substance | score (1-9 scale), negative control without Phytophthora infestans inoculation (detached potato leaves) | protection among concentrations tested with and without LI-700 (Phytophthora infestans [1]; large plants, 400 μM peptide) | severity of symptoms compared with non-treated control group, combination (Phytophthora infestans [1]; plant assays, low dose Peptide V1 (25 μM) combined with low dose of Mancozeb) | severity of symptoms compared with non-treated control group (Phytophthora infestans [1]; plant assays, low dose alone (Peptide V1 25 μM; low dose of Mancozeb)) | disease reduction (Phytophthora infestans [1]; whole plant assays, 400 μM peptide concentration) | activity in the presence of other agrochemical active ingredients ([2]; FIG. 9 legend) | zoospore germination, peptide expressed in E. coli ([2]; Peptide V1 expressed in E. coli) | additive or synergistic effects with chemical fungicides ([2]; Peptide V1 with either Mancozeb or Fungonil (Chlorothalonil), germination assays) | protection against infection (in words), experiment repeated one week later (Phytophthora infestans [3]; 400 uM, detached potato leaves) | average score (1-9 scale of late blight infection) (Phytophthora infestans [3]; 6 days after Phytophthora infection, 50 sporangia/ul final, 4 drops of 10 ul per leaflet, 20 C, peptides 400 uM final, Mancozeb product diluted 1:1000, 9 = no symptoms, water positive control 6.56) | late blight lesions, peptide expressed in E. coli (Phytophthora infestans [3]; detached leaf assay, Peptide V1 expressed in E. coli) | protection (in words), further repeat, first time (Phytophthora infestans [3]; detached potato leaves) | protection (in words), further repeat, second time (Phytophthora infestans [3]; detached potato leaves) | overall conclusion on efficacy (Phytophthora infestans [3]; over all detached leaf experiments) |
| --- | --- | --- | --- | --- | --- | --- | --- | --- | --- | --- | --- | --- | --- | --- |
| RNTAQIP [Peptide V2, RNTAQIP] | 8.67 | – | – | – | – | – | – | – | – | – | – | – | – | – |
| RITAQIRL [Peptide V1] | – | best protection | approximately the same | approximately the same | approximately 60% | retains its activity | completely inhibited zoospore germination | did not indicate any evidence of additive or synergistic effects | almost as good at reducing infection | 8.37 | it allowed the development of minor late blight lesions, it is noteworthy that these lesions did not progress | some protection | excellent protection | consistently works well |

Reference: patent publication US20260209272A1 (priority 2022, published 2026)
